Measured values published in patent US20130096160A1, “ARYLTHIAZOLYL PIPERIDINES AND RELATED COMPOUNDS AS MODULATORS OF SURVIVAL MOTOR NEURON (SMN) PROTEIN PRODUCTION” (Secretary, Department of Health and Human Services, priority 2010, published 2013).

Tested on: SMN2-luciferase reporter
Experiment: SMN2-luciferase reporter qHTS assay
Type: cell-based, human
Parameters: key to Curve Class: A curve class of 1.1 is a full agonist/antagonist; a curve class of 4 indicates the compound is inactive
Details: for Curve Class: agonist/antagonist character of the concentration-response, lower values = more significant concentration-response; for Increased SMN2 activity: percent increase (or decrease) in SMN2 levels compared to control in which no test compound is added
From the text: A cell-based quantitative high throughput screening (qHTS) assay is used to identify compounds able to increase SMN production. The assay uses a SMN2-luciferase reporter to determine if exon 7 of the SMN gene is expressed, which correlates with increased full-length SMN production from the SMN2 gene. As controls, a homologue SMN1-luciferase reporter cell line looks for variations in expression of the SMN1 gene and a cell line with just the luciferase reporter looks at the capacity of the compounds to inhibit luciferase. In addition, increments in SMN production by lead compounds were confirmed by Western-Blot analysis using SMA patient fibroblasts.
For the qHTS assay, concentration-response profiles are generated at the primary-screen level for each library compound to minimize the number of false positives. A dilution series consisting of seven points separated by five-fold concentration differences is prepared for each compound, yielding a concentration series that spans a range of about four orders of magnitude, for example from a high concentration of 50 micromolar to a low concentration of 3.2 nanomolar and providing adequate data for fitting to a Hill equation. For the assay, the SMN2 reporter cell line was plated at a density of ˜2000 cells/well in complete media (phenol red free DMEM, 10% detacl calf serum, and 1× pen/strep), in 1536 well white solid bottom tissue culture treated plates (Greiner). Cells were allowed to adhere and recover at 37 C in 5% CO2 for 10-12 hours. Compounds were added to the plates by a Pintool (Kalypsys) at a volume of 23 nl/well. Cells were incubated in the presence of compounds for 2 days at 37 C in 5% CO2. In order to quantify luciferase reporter levels, 3 ul/well of OneGlo (Promega) was added to each well and incubated at room temperature for 10 minutes. Luminescence from the reporter in each well is measured using a Viewlux CCD based imager (Perkin Elmer) with an integration time of 30 seconds and a binning of 2× in luminescence mode. Sodium butyrate was used as the positive control compound for luciferase induction and a column of 32 wells of 9.2 mM compound on each plate was used to monitor assay performance.
The SMN reporters used herein are modified from those previously described (M. L. Zhang, C. L. Lorson, E. J. Androphy and J. Zhou, An in vivo reporter system for measuring increased inclusion of exon 7 in SMN2 mRNA: potential therapy of SMA, Gene Ther 8 (2001), pp. 1532-1538.)
The sequence of the SMN1 reporter vector used herein is given in SEQ ID NO.:1, while that of the SMN2 reporter vector is given in SEQ ID NO.:2.
Each of the SMN reporters is constructed from three separate DNA fragments: (1) an SMN promotor sequence from the transcriptional reporter p 4.0T (SMN1) or p3.4C (SMN2) described in Monani, et al. Biochimica et Biophysica Acta 1445 (1999) 330-336; (2) a modification of the firefly luciferase splicing reporter for SMN1 or SMN2 described by Zhang et al; and (3) a 744 bp SMN cDNA fragment.
The 3.7 kB SMN1 promoter fragment is obtained by restriction of p4.0T with BglII and SacII. A 3.4 kB SMN2 promoter fragment is obtained by restriction of p3.4C with KpnI and SacII; a 300 bp BglII/KpnI fragment from p4.0T is then added to the 3.4 kB SMN2 promoter fragment to yield the final 3.7 kB SMN2 promoter fragment.
The modified SMN1 and SMN2 firefly luciferase splicing reporters are obtained by removing 4 kB of intron 6 in the original reporter system by restriction with SmaI/Swa followed by religation of the reporter. A 4 kB luciferase splicing reporter is then obtaind by digestion with XhoI and NotI.
Ths SMN cDNA fragment is obtained by generating the productof a polymerase chain reaction (PCR) on a cDNA preparation using […] (SEQ ID NO:3) as the forward primer and Tatctcgagtggtccagaaggaaatggaggcagcc (SEQ ID NO:4) as the reverse primer. The PCR product is then digested with XhoI and SacII. […]

| SMILES | Curve Class | Increased SMN2 activity |
| --- | --- | --- |
| Cc1ccc(-c2csc(N3CCC(C(N)=O)CC3)n2)cc1 [Example 21, 1-(4-(4-Methylphenyl)Thiazol-2-yl)Piperidine-4-Carboxamide] | 1.1 | 439.1% |
| CC(=O)C1CCN(c2ncc(-c3cccc(N(C)C)c3)s2)CC1 [Example 141, 1-(1-(5-(3-(Dimethylamino)Phenyl)Thiazol-2-yl)Piperidin-4-yl)Ethanone] | 1.1 | 224.6% |
| CN(C)c1cccc(-c2cnc(N3CCC(c4ncc[nH]4)CC3)s2)c1 [Example 136, 3-(2-(4-(1H-Imidazol-2-yl)Piperidin-1-yl)Thiazol-5-yl)-N,N-Dimethylaniline] | 1.1 | 188.2% |
| CCOC(=O)C1CCN(c2nc(-c3ccc(Br)cc3)cs2)CC1 [Example 44, Ethyl 1-(4-(4-Bromophenyl)Thiazol-2-yl)Piperidine-4-Carboxylate] | 1.1 | 550.3% |
| NC(=O)C1CCN(c2nc(-c3ccc(C(F)(F)F)cc3)cs2)CC1 [Example 22, 1-(4-(4-Trifluoromethylphenyl)Thiazol-2-yl)Piperidine-4-Carboxamide] | 1.1 | 386.1% |
| NC(=O)C1CCN(c2nccc(-c3ccc4c(c3)OCCCO4)n2)CC1 [Example 128, 1-(4-(3,4-Dihydro-2H-Benzo[B][1,4]Dioxepin-7-yl)Pyrimidin-2-yl)Piperidine-4-Carboxamide] | 1.1 | 234.2% |
| O=C(C1CCN(c2nc(-c3ccc(Br)cc3)cs2)CC1)N1CCOCC1 [Example 74, (1-(4-(4-Bromophenyl)Thiazol-2-yl)Piperidin-4-yl)(Morpholino)Methanone] | 2.2 | 77.48% |
| CN(C)c1ccc(-c2csc(N3CCC(C(N)=O)CC3)n2)cc1 [Example 100, 1-(4-(4-(Dimethylamino)Phenyl)Thiazol-2-yl)Piperidine-4-Carboxamide] | 2.2 | 64.26% |
| NC(=O)N1CCN(c2nc(-c3ccc(Br)cc3)cs2)CC1 [Example 118, 4-(4-(4-Bromophenyl)Thiazol-2-yl)Piperazine-1-Carboxamide] | 2.1 | 88.79% |
| NC(=O)C1CCN(c2nc(-c3ccc(Oc4ccccc4)cc3)cs2)CC1 [Example 92, 1-(4-(4-Phenoxyphenyl)Thiazol-2-yl)Piperidine-4-Carboxamide] | 1.1 | 240% |
| CC(C)Oc1cccc(-c2ccnc(N3CCC(C(N)=O)CC3)n2)c1 [Example 127, 1-(4-(3-Isopropoxyphenyl)Pyrimidin-2-yl)Piperidine-4-Carboxamide] | 1.1 | 298.225% |
| NC(=O)C1CCN(c2nc(-c3ccc4c(c3)OCO4)cs2)CC1 [Example 47, 1-(4-(Benzo[D][1,3]Dioxol-5-yl)Thiazol-2-yl)Piperidine-4-Carboxamide] | 1.1 | 359.16% |
| CC(C)(C)c1ccc(-c2csc(N3CCC(C(N)=O)CC3)n2)cc1 [Example 98, 1-(4-(4-Tert-Butylphenyl)Thiazol-2-yl)Piperidine-4-Carboxamide] | 1.1 | 243.3% |
| CCOC(=O)C1CCN(c2ncc(-c3ccc4c(c3)OCCCO4)s2)CC1 [Example 146, Ethyl 1-(5-(3,4-Dihydro-2H-Benzo[B][1,4]Dioxepin-7-yl)Thiazol-2-yl)Piperidine-4-Carboxylate] | 1.1 | 319.6% |
| NC(=O)C1CCN(c2ncnc(-c3ccc4c(c3)OCCCO4)n2)CC1 [Example 144, 1-(4-(3,4-Dihydro-2H-Benzo[B][1,4]Dioxepin-7-yl)-1,3,5-Triazin-2-yl)Piperidine-4-Carboxamide] | 1.1 | 186.2% |
| NC(=O)C1CCN(c2nc(-c3ccc(N4CCCCC4)nc3)cs2)CC1 [Example 60, 1-(4-(6-(Piperidin-1-yl)Pyridin-3-yl)Thiazol-2-yl)Piperidine-4-Carboxamide] | 2.1 | 100% |
| NC(=O)C1CCN(c2nc(-c3cccc(Cl)c3)cs2)CC1 [Example 34, 1-(4-(3-Chlorophenyl)Thiazol-2-yl)Piperidine-4-Carboxamide] | 2.2 | 53.23% |
| COc1cc(OC)cc(-c2csc(N3CCC(C(N)=O)CC3)n2)c1 [Example 85, 1-(4-(3,5-Dimethoxyphenyl)Thiazol-2-yl)Piperidine-4-Carboxamide] | 1.4 | 44.77% |
| Brc1ccc(-c2csc(N3CCCCC3)n2)cc1 [Example 32, 4-(4-Bromophenyl)-2-(Piperidin-1-yl)Thiazole] | 2.1 | 272.6% |
| O=C(Nc1ccccc1)C1CCN(c2nc(-c3ccc(Br)cc3)cs2)CC1 [Example 72, 1-(4-(4-Bromophenyl)Thiazol-2-yl)-N-Phenylpiperidine-4-Carboxamide] | 1.1 | 262.4% |
| CN(C)c1cccc(-c2nc(N3CCC(C(N)=O)CC3)ncc2F)c1 [Example 149, 1-(4-(3-(Dimethylamino)Phenyl)-5-Fluoropyrimidin-2-yl)Piperidine-4-Carboxamide] | 1.1 | 373.2% |
| NC(=O)C1CCN(c2nc(-c3cccc(Br)c3)cs2)CC1 [Example 26, 1-(4-(3-Bromophenyl)Thiazol-2-yl)Piperidine-4-Carboxamide] | 2.2 | 57.55% |
| NC(=O)C1CCN(c2ncc(-c3ccc(Cl)cc3)s2)CC1 [Example 122, 1-(5-(4-Chlorophenyl)Thiazol-2-yl)Piperidine-4-Carboxamide] | 1.1 | 498.3% |
| CN(C)C(=O)c1cccc(-c2csc(N3CCC(C(N)=O)CC3)n2)c1 [Example 62, 1-(4-(3-(Dimethylcarbamoyl)Phenyl)Thiazol-2-yl)Piperidine-4-Carboxamide] | 2.2 | 51.18% |
| NC(=O)C1CCN(c2nc(-c3ccc4c(c3)OCC4)cs2)CC1 [Example 93, 1-(4-(2,3-Dihydrobenzofuran-6-yl)Thiazol-2-yl)Piperidine-4-Carboxamide] | 2.1 | 401.7% |
| Brc1ccc(-c2csc(N3CCNCC3)n2)cc1 [Example 108, 4-(4-Bromophenyl)-2-(Piperazin-1-yl)Thiazole] | −2.1 | −97.29% |
| CNC(=O)C1CCN(c2nc(-c3ccc(Br)cc3)cs2)CC1 [Example 70, 1-(4-(4-Bromophenyl)Thiazol-2-yl)-N-Methylpiperidine-4-Carboxamide] | 2.1 | 101.9% |
| Cc1ccc(-c2ccnc(N3CCC(C(N)=O)CC3)n2)cc1 [Example 126, 1-(4-P-Tolylpyrimidin-2-yl)Piperidine-4-Carboxamide] | 1.1 | 444.6% |
| NC(=O)C1CCN(c2ncc(-c3ccc4c(c3)OC(F)(F)O4)s2)CC1 [Example 153, 1-(5-(2,2-Difluorobenzo[D][1,3]Dioxol-5-yl)Thiazol-2-yl)Piperidine-4-Carboxamide] | 1.1 | 598.4% |
